The results in this text go back to patent US7566712B2, “Biaryl piperazinyl-pyridine analogues” (Neurogen Corporation, priority 2003, dated 2009).

Each structure is given as a SMILES string.

The target of the first assay is T1, human capsaicin receptor (Homo sapiens, UniProt Q8NER1).
T1 construct: pBK-CMV expression construct encoding the full length human capsaicin receptor; expressed in transfected cells
T1 sequence (Q8NER1 whole entry): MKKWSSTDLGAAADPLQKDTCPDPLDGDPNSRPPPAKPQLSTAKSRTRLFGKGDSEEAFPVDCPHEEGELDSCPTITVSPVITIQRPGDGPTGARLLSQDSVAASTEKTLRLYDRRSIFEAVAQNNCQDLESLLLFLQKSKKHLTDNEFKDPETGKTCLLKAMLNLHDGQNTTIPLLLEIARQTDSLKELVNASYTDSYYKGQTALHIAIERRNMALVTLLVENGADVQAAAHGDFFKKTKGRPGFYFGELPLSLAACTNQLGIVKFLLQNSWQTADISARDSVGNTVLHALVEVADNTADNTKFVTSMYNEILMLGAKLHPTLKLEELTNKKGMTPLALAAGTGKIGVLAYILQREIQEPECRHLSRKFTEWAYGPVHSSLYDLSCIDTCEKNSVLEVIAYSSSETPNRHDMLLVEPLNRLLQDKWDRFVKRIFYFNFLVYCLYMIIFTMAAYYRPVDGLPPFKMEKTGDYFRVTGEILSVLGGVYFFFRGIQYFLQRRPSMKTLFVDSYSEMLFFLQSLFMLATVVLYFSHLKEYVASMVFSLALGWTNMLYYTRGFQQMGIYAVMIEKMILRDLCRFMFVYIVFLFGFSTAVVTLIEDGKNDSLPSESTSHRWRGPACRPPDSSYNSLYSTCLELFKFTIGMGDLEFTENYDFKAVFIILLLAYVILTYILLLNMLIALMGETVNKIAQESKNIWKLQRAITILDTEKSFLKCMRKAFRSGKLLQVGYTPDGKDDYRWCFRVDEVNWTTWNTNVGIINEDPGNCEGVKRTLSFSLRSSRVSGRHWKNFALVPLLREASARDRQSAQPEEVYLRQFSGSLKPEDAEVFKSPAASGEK
As to the kind of experiment: Calcium mobilization assay, determination of antagonist activity (Example 6). Format: cell-based. The settings on record: Table II; IC50 determined as described in Example 6. In outline: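 Antagonism measured as inhibition of capsaicin-evoked (final concentration = EC50, from an 8-point 1 nM–3 μM curve) Fluo-3 calcium signal in stable hVR1-HEK293 cells. Test compounds at 1–5 μM final, 0.5–6 h dark preincubation at room temperature. IC50 = concentration giving 50% reduction versus agonist-only response.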
(A change in cytosolic calcium serves as a functional read-out for many receptors and channels.)
In general, IC50 refers to the concentration that gives 50% inhibition. Take `C[C@@H]1CN(c2ncccc2C(F)(F)F)CCN1c1cc(-c2cccc(OC(F)(F)F)c2)nc(N2CCOCC2)n1` [Example 534, 4-{4-{(2R)-2-methyl-4-[3-(trifluoromethyl)pyridin-2-yl]piperazin-1-yl}-6-[3-(trifluoromethoxy)phenyl]pyrimidin-2-yl}morpholine]: the IC50 was at most 1000 nM.

With `C=CCN1CCN(c2nc(-c3cccc(Cl)c3)nc(N3CCN(c4ncccc4C(F)(F)F)CC3)n2)CC1` [Example 441, 2-(4-allylpiperazin-1-yl)-4-(3-chlorophenyl)-6-{4-[3-(trifluoromethyl)pyridin-2-yl]piperazin-1-yl}-1,3,5-triazine], the IC50 is at most 1000 nM.

`COc1ccc(-c2cc(N3CCN(c4ncccc4Cl)C[C@H]3C)nc(N3CCOCC3)n2)cc1F` [Example 542, 4-[4-[(2R)-4-(3-chloropyridin-2-yl)-2-methylpiperazin-1-yl]-6-(3-fluoro-4-methoxyphenyl)pyrimidin-2-yl]morpholine]: the IC50 is at most 1000 nM.

Regarding `CCCN1CCN(c2nc(-c3ccc(F)c(Cl)c3)cc(N3CCN(c4ncccc4C(F)(F)F)CC3)n2)CC1` [Example 547, 4-(3-chloro-4-fluorophenyl)-2-(4-propylpiperazin-1-yl)-6-{4-[3-(trifluoromethyl)pyridin-2-yl]piperazin-1-yl}pyrimidine], the IC50 is at most 1000 nM.

Staying with this assay, now noted: Table II; IC50 determined as described in Example 6 (antagonist activity, calcium mobilization).
On to `C[C@H]1CN(c2ncccc2Cl)CCN1c1cc(-c2ccc(F)c(Cl)c2)nc(N2CCC[C@@H]2C)n1` [Example 985, 4-(3-chloro-4-fluorophenyl)-6-[(2S)-4-(3-chloropyridin-2-yl)-2-methylpiperazin-1-yl]-2-[(2S)-2-methylpyrrolidin-1-yl]pyrimidine], for which the IC50 was at most 1000 nM.

Turning to `Cc1ccc(-c2cc(N3CCN(c4ncccc4Cl)C[C@H]3C)nc(N3CCC[C@@H]3C)n2)cc1Cl` [Example 999, 4-(3-ohloro-4-methylphenyl)-6-[(2R)-4-(3-chloropyridin-2-yl)-2-methylpiperazin-1-yl]-2-[(2S)-2-methylpyrrolidin-1-yl]pyrimidine], the IC50 is at most 1000 nM.

For `Cc1ccc(-c2cc(N3CCN(c4nccnc4Cl)C[C@H]3C)nc(N3CCC[C@H]3C)n2)cc1F` [Example 981, 4-[(2R)-4-(3-chloropyrazin-2-yl)-2-methylpiperazin-1-yl]-6-(3-fluoro-4-methylphenyl)-2-[(2R)-2-methylpyrrolidin-1-yl]pyrimidine], the IC50 was at most 1000 nM.

Staying with this assay, now noted: Table II; determined as described in Example 6 (antagonist activity); "*" = 1 micromolar or less.
For the compound `CC(=O)Nc1cnc(N2CCN(c3cc(-c4ccc(F)c(Cl)c4)nc(N4CCCC4C)n3)CC2)c(C)c1` (stereo not shown) [Example 816, N-(6-{4-[6-(3-chloro-4-fluorophenyl)-2-(2-methylpyrrolidin-1-yl)pyrimidin-4-yl]piperazin-1-yl}-5-methylpyridin-3-yl)acetamide], the IC50 is at most 1000 nM.

Consider `Cc1cc(-c2cc(N3CCN(c4ncccc4C(F)(F)F)C[C@H]3C)nc(N3CCC3C)n2)ccc1F` (stereo partly drawn) [Example 786, 4-(4-fluoro-3-methyiphenyl)-2-(2-methylazetidin-1-yl)-6-{(2R)-2-methyl-4-[3-(trifluoromethyl)pyridin-2-yl]piperazin-1-yl}pyrimidine], for which the IC50 was at most 1000 nM.

On to `C[C@@H]1CN(c2ccncc2Cl)CCN1c1cc(-c2ccc(F)c(F)c2)nc(N2CCCC2)n1` [Example 829, 4-[(2R)-4-(3-chloropyridin-4-yl)-2-methylpiperazin-1-yl]-6-(3,4-difluorophenyl)-2-pyrrolidin-1-ylpyrimidine], for which the IC50 is at most 1000 nM.

Consider `C[C@@H]1CN(c2nccnc2Cl)CCN1c1cc(-c2ccc(F)c(F)c2)nc(N2CCC[C@H]2C)n1` [Example 935, 4-[(2R)-4-(3-chloropyrazin-2-yl)-2-methylpiperazin-1-yl]-6-(3,4-difluorophenyl)-2-[(2R)-2-methylpyrrolidin-1-yl]pyrimidine], for which the IC50 was at most 1000 nM.

For the compound `C[C@@H]1CN(c2ncccc2Cl)CCN1c1cc(-c2ccc(Cl)c(F)c2)nc(N2CCC[C@H]2C)n1` [Example 934, 4-(4-chloro-3-fluorophenyl)-6-[(2R)-4-(3-chloropyridin-2-yl)-2-methylpiperazin-1-yl]-2-[(2R)-2-methylpyrrolidin-1-yl]pyrimidine], the IC50 is at most 1000 nM.

Turning to `C[C@H]1CN(c2ncccc2Cl)CCN1c1cc(-c2ccc(F)c(F)c2)nc(N2CCCC2)n1` [Example 921, 4-[(2S)-4-(3-chloropyridin-2-yl)-2-methylpiperazin-1-yl]-6-(3,4-difluorophenyl)-2-pyrrolidin-1-ylpyrimidine], the IC50 was at most 1000 nM.

The assay is the same for the next values; noted with them: determined as described in Example 6 (calcium mobilization, antagonist activity); Table II.
Turning to `CCN(C)c1nc(-c2ccc(F)c(C)c2)cc(N2CCN(c3ncccc3C(F)(F)F)CC2)n1` [Example 738, N-ethyl-4-(4-fluoro-3-methylphenyl)-N-methyl-6-{4-[3-(trifluoromethyl)pyridin-2-yl]piperazin-1-yl)pyrimidin-2-amine], the IC50 is at most 1000 nM.

In the case of `Cc1ccc(-c2cc(N3CCN(c4ncccc4C(F)(F)F)CC3)nc(N3CCOCC3)n2)cn1` [Example 606, 4-(4-(6-methylpyridin-3-yl)-6-{4-[3-(trifluoromethyl)pyridin-2-yl]piperazin-1-yl}pyrimidin-2-yl)morpholine], the IC50 was at most 1000 nM.

`C[C@@H]1CN(c2ncccc2C(F)(F)F)CCN1c1cc(-c2ccc(F)c(Cl)c2)nc(N2CCCCC2)n1` [Example 765, 4-(3-chloro-4-fluorophenyl)-6-{(2R)-2-methyt-4-[3-(trifluoromethyl)pyridin-2-yl]piperazin-1-yl}-2-piperidin-1-ylpyrimidine]: the IC50 is at most 1000 nM.

On to `CCc1nccn1-c1nc(-c2cccc(Cl)c2)cc(N2CCN(c3ncccc3C(F)(F)F)CC2)n1` [Example 633, 4-(3-chlorophenyl)-2-(2-ethyl-1H-imidazol-1-yl)-6-{4-[3-(trifluoromethyl)pyridin-2-yl]peperazin-1-yl}pyrimidine], for which the IC50 is at most 1000 nM.

For the compound `C[C@@H]1CN(c2ncccc2Cl)CCN1c1cc(-c2ccc(F)c(F)c2)nc(N2CCCCC2)n1` [Example 769, 4-{(2R)-4-(3-chloropyridin-2-yl)-2-methylpiperazin-1-yl]-6-(3,4-difluorophenyl)-2-piperidin-1-ylpyrimidine], the IC50 was at most 1000 nM.

For `Cc1cccnc1N1CCN(c2cc(-c3ccc(F)c(Cl)c3)nc(N3CCOCC3)n2)CC1=O` [Example 661, 4-[6-(3-chloro-4-fluorophenyl)-2-morpholin-4-ylpyrimidin-4-yl]-1-(3-methylpyridin-2-yl)piperazin-2-one], the IC50 is at most 1000 nM.

For `CC(C)c1nc(-c2ccc(F)c(Cl)c2)cc(N2CCN(c3ncccc3C(F)(F)F)CC2)n1` [Example 605, 4-(3-chloro-4-fluorophenyl)-2-isopropyl-6-{4-[3-(trifluoromethyl)pyridin-2-yl]piperazin-1-yl}pyrimidine], the IC50 was at most 1000 nM.

In the case of `C[C@@H]1CN(c2nc(-c3ccc(F)c(Cl)c3)cc(N3CCN(c4ncccc4C(F)(F)F)CC3)n2)[C@@H](C)CN1C` [Example 628, 4-(3-chloro-4-fluorophenyl)-6-{4-[3-(trifluoromethyl)pyridin-2-yl]piperazin-1-yl}-2-[(2S,5R)-2,4,5-trimethylpiperazin-1-yl]pyrimidine], the IC50 is at most 1000 nM.

`CCC(=O)N1CCN(c2nc(-c3ccc(F)c(Cl)c3)cc(N3CCN(c4ncccc4C(F)(F)F)CC3)n2)CC1` [Example 626, 4-(3-chloro-4-fluorophenyl)-2-(4-propionylpiperazin-1-yl)-6-{4-[3-(trifluoromethyl)pyridin-2-yl]piperazin-1-yl}pyrimidine]: the IC50 is at most 1000 nM.
